Assay results from patent US10045985B2, “Heteroaryl compounds as BTK inhibitors and uses thereof” (Merck Patent GmbH, priority 2015, dated 2018).

target: T1, full-length human BTK (Homo sapiens, UniProt Q06187); experiment: Assay A: microfluidic off-chip mobility shift assay for potency against BTK enzyme; type: biochemical; settings: 90 min at 27° C.
T1 construct: full-length human BTK (08-080) from CarnaBio USA, Inc; purchased CarnaBio USA, Inc., Natick, Mass; 08-080
From the text: Assay A: Microfluidic Off-Chip Mobility Shift Assay Protocol for Potency Assessment Against BTK Enzyme
The protocol below describes microfluidic, off-chip mobility shift kinase assay to measure inherent potency of compounds against BTK enzyme. The mechanics of the assay platform are best described by the vendor (Caliper Life Sciences, a PerkinElmer Company, Hopkinton, Mass.) on their website at the following URL:
Briefly, 2.5× stocks of full-length human BTK (08-080) from CarnaBio USA, Inc., Natick, Mass., 1.6×ATP and appropriate kinKDR peptide substrate (FITC-AHA-EEPLYWSFPAKKK-NH2; developed in-house) were prepared in kinase reaction buffer consisting of 25 mM MgCl2, 0.015% Brij-35 (30%), 100 mM Hepes, pH 7.5, and 10 mM DTT.
5 uL of enzyme buffer and 7.5 uL of ATP/kinKDR peptide substrate mix were added to Matrix (#115304) 384-well, sterile, polypropylene plates (Thermo Fisher Scientific, Hudson, N.H.) with 125 nL of serially diluted compounds prepared in 100% DMSO, and incubated for 90 min. at 27° C. following the incubation period, reactions were stopped by adding 60 uL stop buffer consisting of 100 mM Hepes, pH 7.5, 0.015% Brij-35 (30%), 0.277% Coating Reagent #3 (Caliper Life Sciences, Mountain View, Calif.), 5% DMSO. Stopped reactions were monitored at −2 PSI, −3000 V/−700 V in a LabChip 3000 plate reader from Caliper Life Sciences, a PerkinElmer Company (Hopkinton, Mass.), and the activity was measured by off-chip mobility shift assay measuring the charge/mass difference between substrate and product resulting from peptide phosphorilation. IC50 and efficacy were determined by plotting log [Inhibitor] vs. % Activity in GeneData Screener (Basel, Switzerland).

T1 sequence (Q06187 whole entry): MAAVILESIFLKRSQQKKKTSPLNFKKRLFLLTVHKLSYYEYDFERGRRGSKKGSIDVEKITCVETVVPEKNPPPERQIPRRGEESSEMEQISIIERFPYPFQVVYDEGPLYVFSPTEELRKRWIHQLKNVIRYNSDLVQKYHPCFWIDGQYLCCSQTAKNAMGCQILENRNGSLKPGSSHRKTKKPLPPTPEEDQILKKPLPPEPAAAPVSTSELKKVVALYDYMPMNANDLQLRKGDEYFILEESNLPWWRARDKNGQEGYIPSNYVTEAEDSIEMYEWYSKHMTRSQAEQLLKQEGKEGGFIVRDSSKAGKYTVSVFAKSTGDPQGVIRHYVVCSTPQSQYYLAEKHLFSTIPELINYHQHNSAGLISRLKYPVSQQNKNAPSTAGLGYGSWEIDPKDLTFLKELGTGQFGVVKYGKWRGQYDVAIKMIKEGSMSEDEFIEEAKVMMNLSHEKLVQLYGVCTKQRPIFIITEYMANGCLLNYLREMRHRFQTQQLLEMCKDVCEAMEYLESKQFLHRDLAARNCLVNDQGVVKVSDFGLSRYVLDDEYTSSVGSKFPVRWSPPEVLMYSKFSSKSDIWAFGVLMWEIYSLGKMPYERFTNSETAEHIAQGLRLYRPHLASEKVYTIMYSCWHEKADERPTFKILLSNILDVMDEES

Row | IC50 | SMILES
1 | > 5 µM | COCCOc1ccc(Nc2ncc(F)c(N3CCC4CN(C(=O)c5ccc(C(C)(C)C)cc5)CC43)n2)cc1 (stereo not drawn) [Compound 20, (4-(tert-butyl)phenyl)(1-(5-fluoro-2-((4-(2-methoxyethoxy)phenyl)amino)pyrimidin-4-yl)hexahydropyrrolo[3,4-b]pyrrol-5(1H)-yl)methanone]
2 | > 5 µM | COCCOc1ccc(Nc2ncc(F)c(N3CCCC(CNC(=O)c4ccc(C(C)(C)C)cc4)C3)n2)cc1 (racemic) [Compound 7, 4-(tert-butyl)-N-((1-(5-fluoro-2-((4-(2-methoxyethoxy)phenyl)amino)pyrimidin-4-yl)piperidin-3-yl)methyl)benzamide]
3 | > 5 µM | COCCOc1ccc(Nc2ncc(F)c(N3CCC[C@@H](NC(=O)c4ccc(C(C)(C)C)cc4)C3)n2)cc1 [Compound 1, (R)0-4-(tert-butyl)-N-(1-(5-fluoro-2-((4-(2-methoxyethoxy)phenyl)amino)pyrimidin-4-yl)piperidin-3-yl)benzamide]
4 | > 5 µM | COCCOc1ccc(Nc2ncc(F)c(NCC3CCN(C(=O)c4ccc(C(C)(C)C)cc4)C3)n2)cc1 (racemic) [Compound 8, (4-(tert-butyl)phenyl)(3-(((5-fluoro-2-((4-(2-methoxyethoxy)phenyl)amino)pyrimidin-4-yl)amino)methyl)pyrrolidin-1-yl)methanone]
5 | > 5 µM | COCCOc1ccc(Nc2ncc(F)c(N3CC4CN(C(=O)c5ccc(C(C)(C)C)cc5)CC4C3)n2)cc1 (stereo not drawn) [Compound 18, (4-(tert-butyl)phenyl)(5-(5-fluoro-2-((4-(2-methoxyethoxy)phenyl)amino)pyrimidin-4-yl)hexahydropyrrolo[3,4-c]pyrrol-2(1H)-yl)methanone]
6 | > 5 µM | COCCOc1ccc(Nc2ncc(F)c(N3CCC(CNC(=O)c4ccc(C(C)(C)C)cc4)C3)n2)cc1 (racemic) [Compound 17, 4-(tert-butyl)-N-((1-(5-fluoro-2-((4-(2-methoxyethoxy)phenyl)amino)pyrimidin-4-yl)pyrrolidin-3-yl)methyl)benzamide]

The remaining lines, values behind:

Row | SMILES | IC50
7 | COCCOc1ccc(Nc2ncc(F)c(N3CCCC4(CCCN(C(=O)c5ccc(C(C)(C)C)cc5)C4)C3)n2)cc1 (stereo not drawn) [Compound 21, (4-(tert-butyl)phenyl)(8-(5-fluoro-2-((4-(2-methoxyethoxy)phenyl)amino)pyrimidin-4-yl)-2,8-diazaspiro[5.5]undecan-2-yl)methanone] | > 5 µM
8 | COCCOc1ccc(Nc2ncc(F)c(NC3CCCC(NC(=O)c4coc(-c5ccccc5)n4)C3)n2)cc1 (stereo not drawn) [Compound 14, 2-Phenyl-oxazole-4-carboxylic acid (3-{5-fluoro-2-[4-(2-methoxy-ethoxy)-phenylamino]-pyrimidin-4-ylamino}-cyclohexyl)-amide] | > 5 µM
9 | COCCOc1ccc(Nc2ncc(F)c(N3CC[C@H](NC(=O)c4ccc(C(C)(C)C)cc4)C3)n2)cc1 [Compound 9, (S)-4-(tert-butyl)-N-(1-(5-fluoro-2-((4-(2-methoxyethoxy)phenyl)amino)pyrimidin-4-yl)pyrrolidin-3-yl)benzamide] | > 5 µM
10 | COCCOc1ccc(Nc2ncc(F)c(N[C@H]3CCC[C@H](NC(=O)c4ccc(C(C)(C)C)cc4)[C@H]3O)n2)cc1 [Compound 25] | 1 to 5 µM
11 | COCCOc1ccc(Nc2ncc(F)c(N[C@H]3CCC[C@H](NC(=O)c4ccc(C(C)(C)C)cc4)C3)n2)cc1 [Compound 23, 4-(tert-butyl)-N-((1S,3S)-3-((5-fluoro-2-((4-(2-methoxyethoxy)phenyl)amino)pyrimidin-4-yl)amino)cyclohexyl)benzamide] | 1 to 5 µM
12 | COCCOc1ccc(Nc2ncc(F)c(N[C@@H]3CCC[C@@H](NC(=O)c4ccc(C(C)(C)C)cc4)C3)n2)cc1 [Compound 22, 4-(tert-butyl)-N-((1R,3R)-3-((5-fluoro-2-((4-(2-methoxyethoxy)phenyl)amino)pyrimidin-4-yl)amino)cyclohexyl) benzamide] | < 0.1 µM
